Source: patent US10981866B2 (THE UNITED STATES OF AMERICA, AS REPRESENTED BY THE …, priority 2017, dated 2021)

Biological target: bovine serum albumin (Bos taurus, UniProt P02769)
Assay: binding kinetics of EB-TATE and bovine serum albumin
Conditions: unlabeled EB-TATE

Chain of bovine serum albumin (P02769 25-607): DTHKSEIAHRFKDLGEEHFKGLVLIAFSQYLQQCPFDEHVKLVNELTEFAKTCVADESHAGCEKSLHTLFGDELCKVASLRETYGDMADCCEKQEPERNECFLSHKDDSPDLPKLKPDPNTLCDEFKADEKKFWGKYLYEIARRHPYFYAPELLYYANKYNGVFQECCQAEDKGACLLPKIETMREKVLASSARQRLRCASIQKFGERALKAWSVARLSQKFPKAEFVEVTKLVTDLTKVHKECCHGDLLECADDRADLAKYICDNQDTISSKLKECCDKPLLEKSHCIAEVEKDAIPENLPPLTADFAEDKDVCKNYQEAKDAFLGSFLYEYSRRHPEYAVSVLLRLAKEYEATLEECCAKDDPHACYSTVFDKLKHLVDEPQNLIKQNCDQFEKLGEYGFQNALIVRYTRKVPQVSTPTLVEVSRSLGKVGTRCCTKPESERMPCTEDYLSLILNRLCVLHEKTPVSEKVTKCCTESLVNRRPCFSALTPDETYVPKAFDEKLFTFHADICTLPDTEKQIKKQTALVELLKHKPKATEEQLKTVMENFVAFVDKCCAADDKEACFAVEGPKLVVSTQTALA

Cc1cc(-c2ccc(NC(=O)[C@@H](CCCCNC(=O)CCN3C(=O)CC(SCCC(=O)N[C@H](Cc4ccccc4)C(=O)N[C@H]4CSSCC(C(=O)NC(C(=O)O)[C@@H](C)O)NC(=O)[C@H]([C@@H](C)O)NC(=O)[C@H](CCCCN)NC(=O)[C@@H](Cc5c[nH]c6ccccc56)NC(=O)[C@H](Cc5ccccc5)NC4=O)C3=O)NC(=O)CN3CCN(CC(=O)O)CCN(CC(=O)O)CCN(CC(=O)O)CC3)c(C)c2)ccc1N=Nc1ccc2c(S(=O)(=O)O)cc(S(=O)(=O)O)c(N)c2c1O (some centres unmarked) [EB-TATE]
Kd, affinity to bovine serum albumin: μM Kd affinity
Kon and Koff, bovine serum albumin: high Kon and low Koff
